In BindingDB's records for doi:10.1016/j.bmcl.2003.08.010 (University of Manchester, 2003):

Assay: Inhibitory activity against Escherichia coli thymidine phosphorylase

Structure (SMILES): C=CCNC(=S)NC=C1C(=O)NC(=O)NC1=O [1-Allyl-3-(2,4,6-trioxo-tetrahydro-pyrimidin-5-ylidenemethyl)-thiourea]
- IC50: 94.8 µM
